Source: ChEMBL document CHEMBL1133712, “Monocyclic L-nucleosides with type 1 cytokine-inducing activity” (2000)

Tests used:
Assay type in all cases: functional, Homo sapiens
Parameters in all cases: concentration or dose not given beside the values
[1] = Compounds was tested for the effect of L-nucleosides of ribavirin on SEB (staphylococcal enterotoxin B)-stimulated T-cell expression of the type 1 cytokine IFN-gamma
[2] = Compounds was tested for the effect of L-nucleosides of ribavirin on SEB (staphylococcal enterotoxin B)-stimulated T-cell expression of the type 1 cytokine IL-2.
[3] = Compounds was tested for the effect of L-nucleosides of ribavirin on SEB (staphylococcal enterotoxin B)-stimulated T-cell expression of the type 1 cytokine TNF-alpha

| SMILES | Control [1] [%] | Control [2] [%] | Control [3] [%] |
| --- | --- | --- | --- |
| NC(=O)c1ncn([C@@H]2C[C@@H](O)[C@H](CO)O2)n1 | 110 | 108 | 119 |
| NC(=O)c1ncn([C@H]2O[C@@H](CO)[C@H](O)[C@@H]2O)n1 | 122 | 131 | 144 |
| Cl.N=C(N)c1ncn([C@H]2O[C@@H](CO)[C@H](O)[C@@H]2O)n1 | 128 | 133 | 120 |
| NC(=O)c1ncn([C@H]2O[C@@H](CO)C[C@@H]2O)n1 | 114 | 115 | 109 |
| NC(=O)c1ncn([C@H]2O[C@@H](CO)[C@@H](O)[C@@H]2O)n1 | 119 | 100 | 132 |
| NC(=O)c1ncn([C@@H]2O[C@H](CO)[C@@H](O)[C@H]2O)n1 [RIBAVIRIN] | 131 | 143 | 124 |
